Laboratory results from patent US20060094783A1 (Tava Pharmaceutical Industries, Ltd., priority 1990, published 2006).
Several values for one entry are separate records, joined by “and”; a condition that tells them apart may be missing. Equal values may be shown once. Where a name gives a salt, the structure may show the parent alone. Read-outs that look alike come from different tables or passages of the source.

Assays:
[1] = test system: maximal electroshock seizures in mice; experiment: Maximal electroshock test (MES test) in mice; format: in vivo, mouse; conditions: 100 mg/kg
Description: The MES test is a classical model to indicate efficacy for partial and generalized seizures in humans. The agents' mechanism of action is via their ability to prevent the spread of seizures. Some agents, however, that prevent seizure spread have the side effect of lowering seizure threshold. These agents therefore have both proconvulsive and anticonvulsive side effects.

MCA-occluded Wistar rats [2] = test system: MCA-occluded Wistar rats
Procedure: (§1) Middle cerebral artery occlusion (MCAO) in the rat. […] Male Wistar rats (Olac England-Jerusalem) 300-400 g each were anesthetized with a solution of Equitesine administered i.p. at a dose of 3 mL/kg. Equitesine consists of 13.5 mL sodium pentothal solution (60 mg/mL), 3.5 g chloral hydrate, 1.75 g MgSO4, 33 mL propylene glycol, 8.3 mL absolute alcohol made up to 83 mL with distilled water. […] In order to expose the left middle cerebral artery, a cut was made in the temporal muscle. The tip of the coronoid process of mandible was excised as well and removed with a fine rongeur. Craniectomy was made with a dental drill at the junction between the median wall and the roof of the inferotemporal fossa. The dura matter was opened carefully using a 27 gauge needle. The MCA was permanently occluded by microbipolar coagulation at low power setting, beginning 2-3 mm medial to the olfactory tract between its cortical branch to the rhinal cortex and the laterate striate arteries.
After coagulation, the MCA was severed with microscissors and divided to ensure complete occlusion. Following this, the temporalis muscle was sutured and laid over the craniectomy site. The skin was closed with a running 3-0 silk suture. A shad craniectomy operation was performed on a parallel group of rats, but without cauterization of the MCA. During the entire surgical operation (20-25 min) in either group, body temperature was maintained at 37 to 38° C. by means of a body-temperature regulator (Kyoristsu, Japan) consisting of a self-regulating heating pad connected to a rectal thermistor. […] The volume of brain tissue incurring damage following ischemia was determined.
1 mg/kg immediately after surgery.
0.5 mg/kg 2 hours after surgery
Then multislices T2-weighted images (3000/80) were acquired (5 contiguous slices, 3 mm thick).
The following MRI parameters were determined for each group of rats:
The use of contiguous slices allows the conversion-of area units into volume units by simply multiplying the area value by the slice thickness

[3] = test system: haloperidol-induced catalepsy in mice; experiment: Reversal of haloperidol-induced catalepsy in mice; format: in vivo, mouse; conditions: peak effect at 7.5-10 mg/kg, 3 hours after haloperidol
Procedure: All drugs were administered i.p. in a volume of 0.2 mL. Two hours later, haloperidol was injected s.c. at a dose of 6 mg/kg in a volume of 0.1-0.2 mL. Motor coordination tests were made at 3 hours after giving haloperidol, that is, 5 hours after administering the presumed protective drugs.
Motor coordination tests and rigidity were quantified according to three different parameters: (a) ability to walk the length of a horizontal rod, 80 cm-long; (b) ability to climb down, face down, a vertical rod, 80 cm-long; (c) duration of immobility in an unnatural sitting posture whereby the abdomen of the mouse is pressed against a “wall.” Full performance as in haloperidol-untreated mice is given the score of 4 in each test, or a total of 12 in all tests. Poor performance is given a score from 1 to 3.

[4] = test system: neonatal rat cerebellum cell cultures; conditions: for Percent Protection: after subtraction of solvent effect
Procedure: Procedures: cultures of mechanically dissociated neonatal rat cerebellum. […] The cerebella are then dissociated after 20-25 passages through a sterile 13 gauge, 10 cm long stainless steel needle attached to a 5 ml syringe with an inserted 45 μm pore size nylon sieve. The dissociated cells are centrifuged at 200 g for 5 minutes, the supernatant discarded and the cells resuspended in enriched medium. The cell viability is determined by the trypan blue exclusion test. […] After 4 days in culture, the media are replaced with media containing the desired test compounds. Experiments are done in duplicate and repeated 2 or 3 times. […] Nerve cell survival is evaluated by phase contrast microscopy and trypan blue staining after 24 h.
Values, expressed as the percent of untreated controls, represent the average of 2 experiments run in duplicate for culture experiments, and the mean±SEM of 4 animals for ischemia. The percent protection value is the effect of the test compound after subtraction of the solvent effect.

[5] = test system: crush-injured rat optic nerve; conditions: rats, 2 mg/kg i.p. immediately after optic nerve crush
Description: At short terms, metabolic measurements were monitored in terms of the mitochondrial NADH/NAD ratio, which depends on the activity of the electron transport system, and thus indicate levels of energy production.
Monitoring of the intramitochondrial NADH redox state is based on the fact that NADH, unlike the oxidized form NAD^+, fluoresces when illuminated at […]. A flexible Y-shaped bundle of optic fibers (light guide) was used to transmit the light to and from the optic nerve. […] Changes in the reflected light were correlated with changes in tissue absorption caused by hemodynamic effects and with movements of the optic nerve secondary to alterations in arterial blood pressure and nerve volume.
Animal utilization was in accord with the ARVO Resolution on the use of animals in research. […] With the animal's head held in place by a head holder, a lateral canthotomy was performed under a binocular operating microscope and the conjuctiva was incised lateral to the cornea.

MCA-occluded Wistar rats [6] = test system: MCA-occluded Wistar rats; remark: listed apart in the source
Procedure: as §1
After coagulation, the MCA was severed with microscissors and divided to ensure complete occlusion. Following this, the temporalis muscle was sutured and laid over the craniectomy site. The skin was closed with a running 3-0 silk suture. A shad craniectomy operation was performed on a parallel group of rats, but without cauterization of the MCA. […] The volume of brain tissue incurring damage following ischemia was determined. […]

[7] = test system: Metrazol seizure threshold in mice; experiment: Timed Intravenous Infusion of Metrazol test; format: in vivo, mouse; conditions: 141 mg/kg
Procedure: Timed Intravenous Infusion of Metrazol Test. This test measures the minimal seizure threshold of each animal. Metrazol is infused at 0.185 mg/ml into the tail veins of mice.

[8] = test system: passive avoidance response in young rats; experiment: Passive avoidance test in young rats (memory); format: in vivo, rat; conditions: Protocol B (0.5 mg/kg/day), anoxia-lesioned rats
Description: The effect of R(+)-PAI and S(−)-PAI on the improvement or restoration of memory was investigated in the passive avoidance test. If the drug is effective, it increases the latency of response to enter a dark compartment or chamber where an electroshock has been experienced earlier by the rat being tested. The latency of the maximal response is 300 seconds.

[9] = test system: anoxia-induced hyperactive syndrome in juvenile rats; experiment: Anoxia-induced hyperactive syndrome in juvenile rats; format: in vivo, rat; conditions: 0.5 mg/kg/day to nursing mother
Procedure: Anoxia was performed on rat pups on the first post-natal day. They were placed in a glass chamber and exposed to 100% nitrogen for 25 minutes. They were resuscitated by intermittent massage softly applied to the chest and then returned to their respective mothers. Control rats received the same treatment but with air instead of nitrogen.
Locomotion was measured in 6 fully computerized cages (28×28 cm) by recording the number of crossings over a given period of time. Crossings of grid infrared beams at 4-cm intervals initiated electrical impulses which fed a counter. Recordings of motor activity were made at the ages of 15 and 20 days, over a period of 15 minutes.

[10] = test system: amphetamine-induced stereotype behavior in senescent rats; experiment: Amphetamine-induced stereotype behavior in senescent rats; format: in vivo, rat; conditions: control senescent rats, 0.5 mg/kg/day in drinking water, amphetamine 0.5 mg/kg s.c.
Procedure: 45 minutes later, lateral head movements were counted.

[11] = test system: MPTP-induced striatal DA and DOPAC depletions in mice; experiment: Suppression of MPTP-induced dopaminergic toxicity (striatal DA and DOPAC); format: in vivo, mouse; conditions: PAI […] i.p., deprenyl 5 mg/kg i.p., 5 days
[12] = pretreatment 1 h before MPTP 30 mg/kg s.c.

## C#CCN[C@@H]1CCc2ccccc21.CS(=O)(=O)O [(R)-PAI Mesylate, R-(+)-N-propargyl-1-aminoindan mesylate]
[1]
  mice protected: one out of three
MCA-occluded Wistar rats [2]; Table 21, n=9, MRI T2 scan 48 h after MCA-O, 1.0, 0.5, 1.0 mg/kg ip at 0, 2, 24 hrs
  Infarct size, MEAN ± SD: 163.5 ± 43.9 mm^3
MCA-occluded Wistar rats [2]; Table 21, n=9 vs 10 untreated
  reduction of infarct size: [R](+)PAI Mesylate reduces infarct size by 40% significantly
MCA-occluded Wistar rats [2]; Table 22, n=5, MRI 48 hrs after MCA-Occlusion
  Infarct size, MEAN + SD: 172 ± 28 mm^3
MCA-occluded Wistar rats [2]; Table 22, n=5 vs 6 untreated MCAO rats, mesylate
  reduction of infarct size: 36% and 36.3%
MCA-occluded Wistar rats [2]; n=9 vs 10 untreated
  infarct size as % of that in untreated animals: about 60%
[3]
  peak activity score as % of saline control: 94%
[4]; 0.01 μM + NMDA
  Surviving Cells (percent of untreated controls): 12
  Percent Protection: 2
[4]; 1.00 μM + NMDA
  Surviving Cells (percent of untreated controls): 22
  Percent Protection: 12
[4]; 10.00 μM + NMDA
  Surviving Cells (percent of untreated controls): 37
[5]
  effect on injury-induced reduction in energy production (NADH response to anoxia): blocked the injury-induced reduction in energy production
MCA-occluded Wistar rats [6]; n=5, 24 hrs after MCA-Occlusion, scale 0-13
  Neurological Score, MEAN + SD: 2.78 ± 1.3
MCA-occluded Wistar rats [6]; n=5 vs 6 untreated MCAO rats, mesylate
  reduction of neurological score: 54% and 53.7%

## C#CCN[C@H]1CCc2ccccc21 [(S)-PAI Mesylate]
[1]
  mice protected: three out of three
[7]
  effect on time to first focal seizure and onset of clonus (proconvulsive activity): reduces the time

## C#CCN[C@H]1CCc2ccccc21 [S(−)PAI]
[8]
  latency After Electroshock: 112 ± 112 s
  latency Before Electroshock: 48 ± 19 s
[9]; 15-day old anoxia-lesioned rats
  numbers of crossings of infrared beam grid over 15 minutes: 334 ± 196(5)
[9]; 20-day old anoxia-lesioned rats
  numbers of crossings of infrared beam grid over 15 minutes: 778 ± 232(6)
[10]
  Stereotype Behavior Rating (lateral head movements in 1 minute): 94 ± 18
[11]; drug alone
  striatal DA: 174.0 ± 4.8 ng/mg protein
  striatal DOPAC: 7.5 ± 0.2 ng/mg protein
[11]; [12]
  striatal DA: 53.4 ± 6.9 ng/mg protein
  striatal DOPAC: 7.0 ± 0.6 ng/mg protein
